Assay results as given in patent publication US4275065A, “Modulating the immune response with 2-substituted-3-hydroxythiazolo[2,3-b]b e” (American Home Products Corporation, priority 1980, dated 1981).

Assays:
[1] = tested on: thymus gland; test: effect on the thymus gland (thymus weight); format: in vivo, BDF1 mice; conditions: Table 4
Protocol: The effect of the compounds of the invention on the thymus gland is measured. BDF1 mice of 18-20 gms. weight are dosed at 150 mg/kg. with 6-chloro-2-phenylthiazolo[2,3-b]benzothiazolo-3(2H)-one mesoionic didehydro derivative for eight consecutive days. The mice are sacrificed on the ninth day, the thymus glands excised and weighed. The excised thymus glands averaged […]. as compared to […]. for the control group. […] The weight loss is also correlated to dose, and the results are as follows:
Using the same technique, the following compounds of the invention were tested: 6-chloro-2-(p-chlorophenyl)thiazolo[2,3-b]benzothiazol-3(2H)-one mesoionic didehydro derivative (A), 2-phenyl-5,6,7,8-tetrahydrothiazolo[2,3-b]benzothiazol-3(2H)-one mesoionic didehydro derivative (B), 2-phenylthiazolo[2,3-b]-benzothiazol-3(2H)-one mesoionic didehydro derivative (C),6-chloro-2-trifluoroacetylthiazolo[2,3-b]benzothiazol-3(2H)-one mesoionic didehydro derivative (D), 6-chloro-3-hydroxy-2-phenylthiazolo[2,3-b]benzothiazolium bromide (E), 7-ethoxy-3-hydroxy-2-phenylthiazolo[2,3-b]benzothiazolium bromide (F), 3-hydroxy-2-phenylthiazolo[2,3-b]benzothiazolium bromide (G), and 3-hydroxy-2-phenyl-5,6,7,8-tetrahydrothiazolo[2,3-b]benzothiazolium bromide (H).

[2] = tested on: antibody-secreting plaque-forming splenocytes (IgG and IgM); test: Cunningham modification of the Jerne assay (hemolytic plaque technique), IgM and IgG plaques per spleen; format: in vivo, CDF1 (Balb/c × DBA/2) mice; conditions: Table 2, 200 mg/kg
Protocol: In this example, the compounds of the invention are tested for their effect on antibody-secreting plaque-forming splenocytes (IgG and IgM) in the Cunningham modification of the Jerne assay. This technique is able to detect, in a quantitative manner, antibody producing cells in response to antigen stimulus in the host mouse. For study of […] immune response, sheep erythrocytes (SRBC) are used (as in the present Example), while for humoral immune response, SRBC coupled with pneumococcal polysaccharide is used.
CDF1 (Balb/c × DBA/2) mice are immunized with 0.1 ml. of 10^8 sheep erythrocytes (SRBC) intraperitonially 4-5 days before the assay. The mice are separated into groups, with one group serving as a control and all other groups receiving compounds of the invention. The treated mice are dosed with drug on day one. […] The spleens of the sacrificed mice are excised and washed several times in RPMI 1640 with 10% fetal bovine serum. 100 λ of spleen cells are mixed with a drop of guinea pig complement, four drops of RPMI 1640 and a drop of 25% SRBC in a microtiter plate well and then pipetted into a Cunningham chamber. On day four, for IgM determinations, the chambers are incubated for 30 minutes at 37° C. Antibody, released by the small proportion of active cells, attaches to the surrounding erythrocytes which are lysed by complement leaving a small plaque up to 0.5 mm. in diameter. Since only cells releasing IgM antibody form plaques directly, a "developing" serum must be added to be able to form and view IgG plaques. Thus fifth or sixth day cultured spleen cells are further treated with rabbit antimouse IgG and then incubated for 45 minutes. Both IgM and IgG plaques are counted under a stereomicroscope.
In Table 1 are given the IgM and IgG plaque counts per spleen for mice treated with 6-chloro-2-phenylthiazolo[2,3-b]benzothiazol-3(2H)-one mesoionic didehydro derivative and for the controls:
The assay is repeated using the following compounds of the invention: 2-phenylthiazolo[2,3-b]benzothiazol-3(2H)-one mesoionic didehydro derivative (A), 6-chloro-2-(p-chlorophenyl)-thiazolo[2,3-b]benzothiazol-3(2H)-one mesoionic didehydro derivative (B) and 6-chloro-2-phenylthiazolo[2,3-b]benzothiazol-3(2H)-one mesoionic didehydro derivative (C).

[3] = tested on: hemolytic anemia; test: autoimmune hemolytic anemia model, serum immunoglobulins; format: in vivo, NZB mice; design: IgM, Baseline: unit not given beside the values; conditions: for ANA (antinuclear antibody), 1st Reading / IgG, 1st Reading / IgM, 1st Reading: 1st Reading (156 Days); for ANA (antinuclear antibody), 1st Reading / IgG, 1st Reading / IgM, 1st Reading / IgG, % Change / IgM, % Change: 200 mg/kg, four doses over two weeks; for IgG, % Change / IgM, % Change: 142 to 156 Days
From the text: NZB/W F1 mice are divided into two groups according to sex. At the initiation of drug treatment, female mice are 78.2 days old with an average weight of 30 g., while male mice are 69.5 days old with an average weight of 40 g. IgG, IgM and antinuclear antibody determinations are made on pooled samples of serum obtained by capillary bleedings of the suborbital sinus at approximately monthly intervals. The compounds of the invention are suspended in a solution of physiological saline with 0.16% CMC. All dosing is twice weekly intraperitonially.
Another autoimmune disease model, hemolytic anemia, is used to further evaluate the compounds of the invention. Thus, NZB mice, having an average age of 142 days and with well advanced hemolytic anemia, are divided into treatment groups and are dosed biweekly over a period of two weeks (four doses total) with the following compounds in the same manner as previously described: 6-chloro-2-(p-chlorophenyl)thiazolo[2,3-b]benzothiazol-3(2H)-one mesoionic didehydro derivative (A), 2-phenyl-5,6,7,8-tetrahydrothiazolo[2,3-b]benzothiazol-3(2H)-one mesoionic didehydro derivative (B), 2-phenylthiazolo[2,3-b]benzothiazol-3(2H)-one mesoionic didehydro derivative (C) and 6-chloro-2-trifluoroacetylthiazolo[2,3-b]benzothiazol-3(2H)-one mesoionic didehydro derivative (D). The immunoglobulin values from serum samples are compared with the baseline (pretreatment) for each group and the results are summarized in Table 10: […]

[4] = tested on: autoimmune disease (systemic lupus erythematosus); test: autoimmune disease (systemic lupus erythematosus), immunoglobulin determinations, male NZB/W mice; format: in vivo, male NZB/W F1 mice; conditions: A 100 mg/kg, levamisole 25 mg/kg, i.p. twice weekly
Protocol: (§1) The effect of the compounds of the invention on the development and progress of autoimmune disease (systemic lupus erythematosus) in the New Zealand F1 hydrid mouse (NZB×NZW) is evaluated. NZB/W F1 mice are divided into two groups according to sex. […] IgG, IgM and antinuclear antibody determinations are made on pooled samples of serum obtained by capillary bleedings of the suborbital sinus at approximately monthly intervals. The compounds of the invention are suspended in a solution of physiological saline with 0.16% CMC. All dosing is twice weekly intraperitonially. […] Immunoglobulin values from serum samples are compared with the baseline (pretreatment) for each group.

[5] = tested on: autoimmune disease (systemic lupus erythematosus); test: autoimmune disease (systemic lupus erythematosus), immunoglobulin determinations, female NZB/W mice; format: in vivo, female NZB/W F1 mice; conditions: A 100 mg/kg, levamisole 25 mg/kg, i.p. twice weekly
Protocol: as §1

[6] = tested on: delayed hypersensitivity reaction; test: guinea pig delayed hypersensitivity assay (PPD); format: in vivo, Male Hartley strain guinea pigs; conditions: 50 mg/kg orally, read 24 hours after challenge, * = p < 0.05
[7] = Baseline (142 Days), 200 mg/kg group

With `[O-]c1c(-c2ccccc2)sc2sc3ccccc3[n+]12` [A] the “toxicity (printed in the thymus weight column)” value ([1]; 200 mg/kg) was “toxic”, the “IgG, mean (total number of plaques per spleen)” value ([2]; Day 4) was 107,100 plaques per spleen and the “IgM, mean (total number of plaques per spleen)” value ([2]; Day 4) was 163,800 plaques per spleen. The “IgG, mean (total number of plaques per spleen)” value ([2]; Day 5) was 184,590 plaques per spleen, the “IgM, mean (total number of plaques per spleen)” value ([2]; Day 5) was 97,020 plaques per spleen and the “ANA (antinuclear antibody), 1st Reading” value [3] was “neg”. For the same compound, the “IgG, 1st Reading” value [3] was 570, the “IgM, 1st Reading” value [3] was 176 and the “IgG, % Change” value [3] was -15%. For the same compound, the “IgM, % Change” value [3] was “+21%”, the “ANA (antinuclear antibody), Baseline” value [3, 7] was “neg” and the “IgG, Baseline” value [3, 7] was 674. For the same compound, the “IgM, Baseline” value [3, 7] was 146.

`c1ccc([C@H]2CN3CCSC3=N2)cc1` [Levamisole, L-(-)-2,3,5,6-tetrahydro-6-phenylimidazo[2,1-b]thiazole, reference compound] gave an IgG level ([4]; 47 Days) of 560 mg./100 ml, an IgM level ([4]; 47 Days) of 68 mg./100 ml and an IgG level ([4]; 76 Days) of 710 mg./100 ml. For the same compound, the IgM level ([4]; 76 Days) was 140 mg./100 ml, the IgG level ([4]; 111 Days) was 710 mg./100 ml and the IgM level ([4]; 111 Days) was 128 mg./100 ml. For the same compound, the IgG level ([4]; 154 Days) was 910 mg./100 ml, the IgM level ([4]; 154 Days) was 142 mg./100 ml and the “IgG Total Change From Baseline” value [4] was “+460 mg./100 ml”. The “IgM Total Change From Baseline” value [4] was “+98.5 mg./100 ml”, the IgG level ([4]; Pretreatment) was 450 mg./100 ml and the IgM level ([4]; Pretreatment) was 43.5 mg./100 ml. It also gave an IgG level ([5]; 47 Days) of 404 mg./100 ml, an IgM level ([5]; 47 Days) of 49 mg./100 ml and an IgG level ([5]; 76 Days) of 490 mg./100 ml. For the same compound, the IgM level ([5]; 76 Days) was 83 mg./100 ml, the IgG level ([5]; 111 Days) was 980 mg./100 ml and the IgM level ([5]; 111 Days) was 136 mg./100 ml. For the same compound, the IgG level ([5]; 154 Days) was 900 mg./100 ml, the IgM level ([5]; 154 Days) was 154 mg./100 ml and the “IgG Total Change From Baseline” value [5] was “+440 mg./100 ml”. For the same compound, the “IgM Total Change From Baseline” value [5] was “+90 mg./100 ml”, the IgG level ([5]; Pretreatment) was 460 mg./100 ml and the IgM level ([5]; Pretreatment) was 64 mg./100 ml.

`O=P1(N(CCCl)CCCl)NCCCO1` (stereo not drawn) [Cyclophosphamide, cyclophosphamide, reference compound] was tested, and the “Mean % Inhibition of Paw Edema” value ([6]; 6 hours after challenge) was 58% and the “Mean % Inhibition of Paw Edema” value ([6]; 24 hours before challenge) was 56%.

With `[O-]c1c(-c2ccccc2)sc2sc3c([n+]12)CCCC3` [Example 11, 2-Phenyl-5,6,7,8-tetrahydrothiazolo[2,3-b]-benzothiazol-3(2H)-one mesoionic dedihydro derivative] the “% Change in weight (thymus gland)” value ([1]; 200 mg/kg) was -58%, the “Avg. weight of thymus gland” value ([1]; 200 mg/kg) was 16.8 mg and the “ANA (antinuclear antibody), 1st Reading” value [3] was “neg”. For the same compound, the “IgG, 1st Reading” value [3] was 356, the “IgM, 1st Reading” value [3] was 134 and the “IgG, % Change” value [3] was -50%. The “IgM, % Change” value [3] was -31%, the “IgG, Baseline” value [3, 7] was 710 and the “IgM, Baseline” value [3, 7] was 194.

For `Oc1c(-c2ccccc2)sc2sc3ccccc3[n+]12` [G], the “% Change in weight (thymus gland)” value ([1]; 75 mg/kg) was -29% and the “Avg. weight of thymus gland” value ([1]; 75 mg/kg) was 28.0 mg.

With `Oc1c(-c2ccccc2)sc2sc3c([n+]12)CCCC3` [H] the “% Change in weight (thymus gland)” value ([1]; 75 mg/kg) was “+2%” and the “Avg. weight of thymus gland” value ([1]; 75 mg/kg) was 40.5 mg.

For `Oc1c(-c2ccccc2)sc2sc3ccc(Cl)cc3[n+]12` [E], the “% Change in weight (thymus gland)” value ([1]; 75 mg/kg) was -56% and the “Avg. weight of thymus gland” value ([1]; 75 mg/kg) was 17.5 mg.

`[O-]c1c(-c2ccc(Cl)cc2)sc2sc3ccc(Cl)cc3[n+]12` [B] was tested, and the “% Change in weight (thymus gland)” value ([1]; 200 mg/kg) was -53%, the “Avg. weight of thymus gland” value ([1]; 200 mg/kg) was 18.6 mg and the “IgG, mean (total number of plaques per spleen)” value ([2]; Day 4) was 9,656 plaques per spleen. The “IgM, mean (total number of plaques per spleen)” value ([2]; Day 4) was 74,025 plaques per spleen, the “IgG, mean (total number of plaques per spleen)” value ([2]; Day 5) was 49,218 plaques per spleen and the “IgM, mean (total number of plaques per spleen)” value ([2]; Day 5) was 50,250 plaques per spleen. The “ANA (antinuclear antibody), 1st Reading” value [3] was “neg”, the “IgG, 1st Reading” value [3] was 304 and the “IgM, 1st Reading” value [3] was 120. The “IgG, % Change” value [3] was -60%, the “IgM, % Change” value [3] was -32% and the “IgG, Baseline” value [3, 7] was 760. For the same compound, the “IgM, Baseline” value [3, 7] was 176.

With `[O-]c1c(-c2ccccc2)sc2sc3ccc(Cl)cc3[n+]12` [C] the “IgG, mean (total number of plaques per spleen)” value ([2]; Day 4) was 22,875 plaques per spleen, the “IgM, mean (total number of plaques per spleen)” value ([2]; Day 4) was 110,643 plaques per spleen and the “IgG, mean (total number of plaques per spleen)” value ([2]; Day 5) was 117,337 plaques per spleen. The “IgM, mean (total number of plaques per spleen)” value ([2]; Day 5) was 55,518 plaques per spleen.

In the case of `CCOc1ccc2c(c1)sc1sc(-c3ccccc3)c(O)[n+]12` [F], the “% Change in weight (thymus gland)” value ([1]; 150 mg/kg) is reported as -16% and the “Avg. weight of thymus gland” value ([1]; 150 mg/kg) is reported as 33.3 mg.

`O=C(c1sc2sc3ccc(Cl)cc3[n+]2c1[O-])C(F)(F)F` [D] was tested, and the “% Change in weight (thymus gland)” value ([1]; 200 mg/kg) was -28%, the “Avg. weight of thymus gland” value ([1]; 200 mg/kg) was 28.4 mg and the “IgG, 1st Reading” value [3] was 770. The “IgM, 1st Reading” value [3] was 190, the “IgG, % Change” value [3] was “+8%” and the “IgM, % Change” value [3] was “+4%”. The “IgG, Baseline” value [3, 7] was 710 and the “IgM, Baseline” value [3, 7] was 182.
